Results as given in patent US6936585B2, “Corticotropin releasing factor 2 receptor agonists” (priority 2002, dated 2005).
Peptide text beside a SMILES is read from it.

Tests used:
CRF2R = target: T1, CRF2R (Homo sapiens, UniProt Q13324); experiment: CRF2R agonist activation (EC50 / Emax), called comparative CRF binding; format: cell-based; conditions: for EC50: read-out: CRF2R EC50; for Emax: read-out: CRF2R Emax
T1 sequence (Q13324 1-411): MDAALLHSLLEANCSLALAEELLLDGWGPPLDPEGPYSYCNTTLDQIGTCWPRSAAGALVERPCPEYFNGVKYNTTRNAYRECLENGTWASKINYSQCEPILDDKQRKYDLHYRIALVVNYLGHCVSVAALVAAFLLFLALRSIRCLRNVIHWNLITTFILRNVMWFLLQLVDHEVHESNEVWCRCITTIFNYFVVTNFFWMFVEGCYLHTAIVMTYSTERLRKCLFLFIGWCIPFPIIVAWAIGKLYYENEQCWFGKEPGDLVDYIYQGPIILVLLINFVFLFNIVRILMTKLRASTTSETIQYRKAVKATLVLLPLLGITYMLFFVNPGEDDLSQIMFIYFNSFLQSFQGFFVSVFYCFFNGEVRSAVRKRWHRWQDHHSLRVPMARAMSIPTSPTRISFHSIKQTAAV
Method in brief: (§1)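 Receptor-expressing cells are contacted with test peptide or the vehicle it is dissolved in. Lysates are then assayed for cAMP, or expression of a CRE-coupled reporter is quantitated. Engineered cells carrying receptor-G-protein fusions may replace full-length receptors.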

CRF1R = target: T2, CRF1R (Homo sapiens, UniProt P34998); experiment: CRF1R agonist activation (EC50 / Emax), called comparative CRF binding; format: cell-based; conditions: for EC50: read-out: CRF1R EC50; for Emax: read-out: CRF1R Emax
T2 sequence (P34998 24-415): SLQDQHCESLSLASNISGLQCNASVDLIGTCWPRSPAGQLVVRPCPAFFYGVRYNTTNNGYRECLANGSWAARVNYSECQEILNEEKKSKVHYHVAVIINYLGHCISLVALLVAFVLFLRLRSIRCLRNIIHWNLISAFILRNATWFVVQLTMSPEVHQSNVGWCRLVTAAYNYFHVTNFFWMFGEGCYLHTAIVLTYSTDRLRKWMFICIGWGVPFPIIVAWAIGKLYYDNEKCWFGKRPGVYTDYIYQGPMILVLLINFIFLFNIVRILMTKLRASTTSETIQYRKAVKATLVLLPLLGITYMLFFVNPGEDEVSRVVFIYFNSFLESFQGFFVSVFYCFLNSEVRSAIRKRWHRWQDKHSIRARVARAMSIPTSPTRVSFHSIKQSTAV
Method in brief: as §1

Compound	EC50 (CRF2R) [nM]	Emax (CRF2R) [%]	EC50 (CRF1R) [nM]	Emax (CRF1R) [%]
CC[C@H](C)[C@H](NC(=O)[C@H](Cc1c[nH]cn1)NC(=O)[C@H](C)NC(=O)[C@H](CC(N)=O)NC(=O)[C@H](CCC(N)=O)NC(=O)[C@H](CCC(=O)O)NC(=O)[C@H](C)NC(=O)[C@H](CCCNC(=N)N)NC(=O)[C@H](CCC(=O)O)NC(=O)[C@H](CCCNC(=N)N)NC(=O)[C@H](CCC(N)=O)NC(=O)[C@H](CO)NC(=O)[C@H](CCC(N)=O)NC(=O)[C@@H](NC(=O)[C@H](CCCCN)NC(=O)[C@H](CCC(=O)O)NC(=O)[C@H](CC(C)C)NC(=O)[C@H](CCC(=O)O)NC(=O)[C@H](CC(C)C)NC(=O)[C@H](CC(C)C)NC(=O)[C@@H](NC(=O)[C@H](CCCNC(=N)N)NC(=O)[C@H](CC(C)C)NC(=O)[C@H](CC(C)C)NC(=O)[C@H](CC(C)C)NC(=O)[C@H](CC(C)C)NC(=O)[C@@H]1CCCN1C(=O)[C@H](CC(C)C)NC(=O)[C@H](CC(=O)O)NC(=O)[C@@H](NC(=O)[C@H](CO)NC(=O)[C@H](CC(C)C)NC(=O)[C@H](CO)NC(=O)[C@@H]1CCCN1C(=O)[C@H](CC(N)=O)NC(=O)[C@@H](N)CC(=O)O)[C@@H](C)CC)[C@@H](C)O)[C@@H](C)O)C(=O)N[C@@H](Cc1ccccc1)C(=O)N[C@@H](C)C(=O)N[C@@H](Cc1c[nH]cn1)C(=O)N[C@H](C(N)=O)C(C)C [compound 328] (H-DNPSLSIDLPLLLLRTLLELEKTQSQRERAEQNAHIFAHV-NH2; N-terminus assumed)	11.7	95.7	≥ 1000	30.7
CC[C@H](C)[C@H](NC(=O)[C@H](CCCNC(=N)N)NC(=O)[C@H](C)NC(=O)[C@H](CC(N)=O)NC(=O)[C@H](CCC(N)=O)NC(=O)[C@H](CCC(=O)O)NC(=O)[C@H](C)NC(=O)[C@H](CCCNC(=N)N)NC(=O)[C@H](CCC(=O)O)NC(=O)[C@H](CCCNC(=N)N)NC(=O)[C@H](CCC(N)=O)NC(=O)[C@H](CO)NC(=O)[C@H](CCC(N)=O)NC(=O)[C@@H](NC(=O)[C@H](CCCNC(=N)N)NC(=O)[C@H](C)NC(=O)[C@H](CC(C)C)NC(=O)[C@H](CCC(=O)O)NC(=O)[C@H](CC(C)C)NC(=O)[C@H](CC(C)C)NC(=O)[C@@H](NC(=O)[C@H](CCCNC(=N)N)NC(=O)[C@H](CC(C)C)NC(=O)[C@H](CC(C)C)NC(=O)[C@H](Cc1ccccc1)NC(=O)[C@H](CC(C)C)NC(=O)[C@@H]1CCCN1C(=O)[C@H](CC(C)C)NC(=O)[C@H](CC(=O)O)NC(=O)[C@@H](NC(=O)[C@H](CO)NC(=O)[C@H](CC(C)C)NC(=O)[C@H](CO)NC(=O)[C@@H]1CCCN1C(=O)[C@H](CC(N)=O)NC(=O)[C@@H](N)CC(=O)O)[C@@H](C)CC)[C@@H](C)O)[C@@H](C)O)C(=O)N[C@@H](Cc1ccccc1)C(=O)N[C@@H](C)C(=O)N[C@@H](CCCNC(=N)N)C(=O)N[C@H](C(N)=O)C(C)C [compound 329] (H-DNPSLSIDLPLFLLRTLLELARTQSQRERAEQNARIFARV-NH2; N-terminus assumed)	–	98.3	–	98.4
CC[C@H](C)[C@H](NC(=O)[C@H](CCCNC(=N)N)NC(=O)[C@H](C)NC(=O)[C@H](CC(N)=O)NC(=O)[C@H](CCC(N)=O)NC(=O)[C@H](CCC(=O)O)NC(=O)[C@H](C)NC(=O)[C@H](CCCNC(=N)N)NC(=O)[C@H](CCC(=O)O)NC(=O)[C@H](CCCNC(=N)N)NC(=O)[C@H](CCC(N)=O)NC(=O)[C@H](CO)NC(=O)[C@H](CCC(N)=O)NC(=O)[C@@H](NC(=O)[C@H](CCCNC(=N)N)NC(=O)[C@H](C)NC(=O)[C@H](CC(C)C)NC(=O)[C@H](CCC(=O)O)NC(=O)[C@H](CC(C)C)NC(=O)[C@H](CC(C)C)NC(=O)[C@@H](NC(=O)[C@H](CCCNC(=N)N)NC(=O)[C@H](CC(C)C)NC(=O)[C@H](CC(C)C)NC(=O)[C@@H](NC(=O)[C@H](CC(C)C)NC(=O)[C@@H]1CCCN1C(=O)[C@H](CC(C)C)NC(=O)[C@H](CC(=O)O)NC(=O)[C@@H](NC(=O)[C@H](CO)NC(=O)[C@H](CC(C)C)NC(=O)[C@H](CO)NC(=O)[C@@H]1CCCN1C(=O)[C@H](CC(N)=O)NC(=O)[C@@H](N)CC(=O)O)[C@@H](C)CC)[C@@H](C)CC)[C@@H](C)O)[C@@H](C)O)C(=O)N[C@@H](Cc1ccccc1)C(=O)N[C@@H](C)C(=O)N[C@@H](CCCNC(=N)N)C(=O)N[C@H](C(N)=O)C(C)C [compound 330] (H-DNPSLSIDLPLILLRTLLELARTQSQRERAEQNARIFARV-NH2; N-terminus assumed)	6	93.7	≥ 1000	86.8
CC[C@H](C)[C@H](NC(=O)[C@H](CCCNC(=N)N)NC(=O)[C@H](C)NC(=O)[C@H](CC(N)=O)NC(=O)[C@H](CCC(N)=O)NC(=O)[C@H](CCC(=O)O)NC(=O)[C@H](C)NC(=O)[C@H](CCCNC(=N)N)NC(=O)[C@H](CCC(=O)O)NC(=O)[C@H](CCCNC(=N)N)NC(=O)[C@H](CCC(N)=O)NC(=O)[C@H](CO)NC(=O)[C@H](CCC(N)=O)NC(=O)[C@@H](NC(=O)[C@H](CCCCN)NC(=O)[C@H](CCC(=O)O)NC(=O)[C@H](CC(C)C)NC(=O)[C@H](CCC(=O)O)NC(=O)[C@H](CC(C)C)NC(=O)[C@H](CC(C)C)NC(=O)[C@@H](NC(=O)[C@H](CCCNC(=N)N)NC(=O)[C@H](CC(C)C)NC(=O)[C@H](CC(C)C)NC(=O)[C@H](Cc1ccccc1)NC(=O)[C@H](CC(C)C)NC(=O)[C@@H]1CCCN1C(=O)[C@H](CC(C)C)NC(=O)[C@H](CC(=O)O)NC(=O)[C@@H](NC(=O)[C@H](CO)NC(=O)[C@H](CC(C)C)NC(=O)[C@H](CO)NC(=O)[C@@H]1CCCN1)[C@@H](C)CC)[C@@H](C)O)[C@@H](C)O)C(=O)N[C@@H](Cc1ccccc1)C(=O)N[C@@H](C)C(=O)N[C@@H](CCCNC(=N)N)C(=O)N[C@H](C(N)=O)C(C)C [compound 331] (H-PSLSIDLPLFLLRTLLELEKTQSQRERAEQNARIFARV-NH2; N-terminus assumed)	–	100	–	78.7
CC[C@H](C)[C@H](NC(=O)[C@H](CCCNC(=N)N)NC(=O)[C@H](C)NC(=O)[C@H](CC(N)=O)NC(=O)[C@H](CCC(N)=O)NC(=O)[C@H](CCC(=O)O)NC(=O)[C@H](C)NC(=O)[C@H](CCCNC(=N)N)NC(=O)[C@H](CCC(=O)O)NC(=O)[C@H](CCCNC(=N)N)NC(=O)[C@H](CCC(N)=O)NC(=O)[C@H](CO)NC(=O)[C@H](CCC(N)=O)NC(=O)[C@@H](NC(=O)[C@H](CCCCN)NC(=O)[C@H](CCC(=O)O)NC(=O)[C@H](CC(C)C)NC(=O)[C@H](CCC(=O)O)NC(=O)[C@H](CC(C)C)NC(=O)[C@H](CC(C)C)NC(=O)[C@@H](NC(=O)[C@H](CCCNC(=N)N)NC(=O)[C@H](CC(C)C)NC(=O)[C@H](CC(C)C)NC(=O)[C@@H](NC(=O)[C@H](CC(C)C)NC(=O)[C@@H]1CCCN1C(=O)[C@H](CC(C)C)NC(=O)[C@H](CC(=O)O)NC(=O)[C@@H](NC(=O)[C@H](CO)NC(=O)[C@H](CC(C)C)NC(=O)[C@H](CO)NC(=O)[C@@H]1CCCN1)[C@@H](C)CC)[C@@H](C)CC)[C@@H](C)O)[C@@H](C)O)C(=O)N[C@@H](Cc1ccccc1)C(=O)N[C@@H](C)C(=O)N[C@@H](CCCNC(=N)N)C(=O)N[C@H](C(N)=O)C(C)C [compound 332] (H-PSLSIDLPLILLRTLLELEKTQSQRERAEQNARIFARV-NH2; N-terminus assumed)	–	100	–	61.3
CC[C@H](C)[C@H](NC(=O)[C@H](CCCNC(=N)N)NC(=O)[C@H](C)NC(=O)[C@H](CC(N)=O)NC(=O)[C@H](CCC(N)=O)NC(=O)[C@H](CCC(=O)O)NC(=O)[C@H](C)NC(=O)[C@H](CCCNC(=N)N)NC(=O)[C@H](CCC(=O)O)NC(=O)[C@H](CCCNC(=N)N)NC(=O)[C@H](CCC(N)=O)NC(=O)[C@H](CO)NC(=O)[C@H](CCC(N)=O)NC(=O)[C@@H](NC(=O)[C@H](CCCCN)NC(=O)[C@H](CCC(=O)O)NC(=O)[C@H](CC(C)C)NC(=O)[C@H](CCC(=O)O)NC(=O)[C@H](CC(C)C)NC(=O)[C@H](CC(C)C)NC(=O)[C@@H](NC(=O)[C@H](CCCNC(=N)N)NC(=O)[C@H](CC(C)C)NC(=O)[C@H](CC(C)C)NC(=O)[C@H](CC(C)C)NC(=O)[C@H](CC(C)C)NC(=O)[C@@H]1CCCN1C(=O)[C@H](CC(C)C)NC(=O)[C@H](CC(=O)O)NC(=O)[C@@H](NC(=O)[C@H](CO)NC(=O)[C@H](CC(C)C)NC(=O)[C@H](CO)NC(=O)[C@@H]1CCCN1)[C@@H](C)CC)[C@@H](C)O)[C@@H](C)O)C(=O)N[C@@H](Cc1ccccc1)C(=O)N[C@@H](C)C(=O)N[C@@H](CCCNC(=N)N)C(=O)N[C@H](C(N)=O)C(C)C [compound 333] (H-PSLSIDLPLLLLRTLLELEKTQSQRERAEQNARIFARV-NH2; N-terminus assumed)	9.85	96.9	≥ 1000	43.8
